“And” between values parts separate entries of the source, which are not always exact repeats. Identical values can stand only once.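 Test compounds were applied to cells in 96-well plates for 48 hours at 5 doses. GI50 = concentration required for 50% inhibition of growth.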 The source made the active and inactive calls. Cut-off read from the data, not from the text of the source: active = GI50 up to about 1.1 µM and inactive = higher.
How the values were obtained:
Experiment in all cases: DTP human tumour cell line panel, 48 h
[1] = tested on: LOX IMVI
[2] = tested on: ACHN
[3] = tested on: HOP-62
[4] = tested on: SK-MEL-28
[5] = tested on: NCI-H522
[6] = tested on: IGROV-1
[7] = tested on: EKVX
[8] = tested on: MOLT-4
[9] = tested on: HCC 2998
[10] = tested on: OVCAR-8
[11] = tested on: SN12C
[12] = tested on: TK-10
[13] = tested on: HOP-92
[14] = tested on: UO-31
[15] = tested on: SR
[16] = tested on: SNB-75
[17] = tested on: SF-295
[18] = tested on: CCRF-CEM
[19] = tested on: OVCAR-4
[20] = tested on: HT-29

SMILES: O=C1OC(c2ccccc2)=N/C1=C\c1ccccc1
- GI50 [1]: 17.1 µM (inactive) and 23.3 µM (inactive)
- GI50 [2]: > 100 µM (inactive)
- GI50 [3]: 29.1 µM (inactive) and 25.8 µM (inactive)
- GI50 [4]: > 100 µM (inactive) and 83.9 µM (inactive)
- GI50 [5]: 42.9 µM (inactive)
- GI50 [6]: 55.5 µM (inactive) and 37.6 µM (inactive)
- GI50 [7]: > 100 µM (inactive)
- GI50 [8]: 28.2 µM (inactive) and 47 µM (inactive)
- GI50 [9]: > 100 µM (inactive) and 67.9 µM (inactive)
- GI50 [10]: 38.8 µM (inactive) and 32.6 µM (inactive)
- GI50 [11]: 66.4 µM (inactive)
- GI50 [12]: 62.7 µM (inactive) and 78.2 µM (inactive)
- GI50 [13]: > 100 µM (inactive)
- GI50 [14]: > 100 µM (inactive)
- GI50 [15]: 28.4 µM (inactive) and 14.5 µM (inactive)
- GI50 [16]: 66.8 µM (inactive) and 47.5 µM (inactive)
- GI50 [17]: 69 µM (inactive) and 68.2 µM (inactive)
- GI50 [18]: 21 µM (inactive) and 24.6 µM (inactive)
- GI50 [19]: 86.5 µM (inactive) and 49.7 µM (inactive)

SMILES: O=C(CCCN1CCC(C(O)c2ccc(F)cc2)CC1)c1ccc(F)cc1 (centres undefined)
- GI50 [1]: 50 µM (inactive)
- GI50 [2]: 50.6 µM (inactive)
- GI50 [3]: 62.8 µM (inactive)
- GI50 [4]: 59.3 µM (inactive)
- GI50 [5]: 66.8 µM (inactive)
- GI50 [6]: 61.9 µM (inactive)
- GI50 [7]: 62.1 µM (inactive)
- GI50 [8]: 54.3 µM (inactive)
- GI50 [9]: 41.1 µM (inactive)
- GI50 [10]: 64.7 µM (inactive)
- GI50 [11]: 71.9 µM (inactive)
- GI50 [12]: 41.4 µM (inactive)
- GI50 [13]: 20.6 µM (inactive)
- GI50 [14]: 23.1 µM (inactive)
- GI50 [15]: 69.8 µM (inactive)
- GI50 [16]: 44.3 µM (inactive)
- GI50 [20]: 42.3 µM (inactive)
- GI50 [17]: 63.5 µM (inactive)
- GI50 [18]: 76.2 µM (inactive)
- GI50 [19]: 61 µM (inactive)

SMILES: C[N+](C)(C)c1ncnc2c1ncn2C1CC(O)C(CO)O1 (centres undefined)
- GI50 [1]: > 100 µM (inactive)
- GI50 [2]: > 100 µM (inactive)
- GI50 [3]: > 100 µM (inactive)
- GI50 [4]: > 100 µM (inactive)
- GI50 [5]: > 100 µM (inactive)
- GI50 [6]: > 100 µM (inactive)
- GI50 [7]: > 100 µM (inactive)
- GI50 [8]: > 100 µM (inactive)
- GI50 [9]: > 100 µM (inactive)
- GI50 [10]: > 100 µM (inactive)
- GI50 [11]: > 100 µM (inactive)
- GI50 [12]: > 100 µM (inactive)
- GI50 [13]: > 100 µM (inactive)
- GI50 [14]: > 100 µM (inactive)
- GI50 [15]: > 100 µM (inactive)
- GI50 [16]: > 100 µM (inactive)
- GI50 [20]: > 100 µM (inactive)
- GI50 [17]: > 100 µM (inactive)
- GI50 [18]: > 100 µM (inactive)
- GI50 [19]: > 100 µM (inactive)

SMILES: COc1ccc2nc3cc(Cl)ccc3c(NCCCCCC(=O)NC(COc3ccc4ccc5cccnc5c4n3)COc3ccc4ccc5cccnc5c4n3)c2c1
- GI50 [1]: 21.4 µM (inactive)
- GI50 [2]: 15.5 µM (inactive)
- GI50 [3]: > 100 µM (inactive)
- GI50 [4]: 24.2 µM (inactive)
- GI50 [5]: 24.1 µM (inactive)
- GI50 [6]: 16.3 µM (inactive)
- GI50 [7]: 24.8 µM (inactive)
- GI50 [8]: 0.527 µM (active)
- GI50 [9]: 14.9 µM (inactive)
- GI50 [10]: 41.2 µM (inactive)
- GI50 [11]: 17.8 µM (inactive)
- GI50 [12]: 18.1 µM (inactive)
- GI50 [13]: 24.4 µM (inactive)
- GI50 [14]: 2.79 µM (inactive)
- GI50 [15]: 3.14 µM (inactive)
- GI50 [16]: 21 µM (inactive)
- GI50 [20]: 27.9 µM (inactive)
- GI50 [17]: 29.8 µM (inactive)
- GI50 [18]: 2.28 µM (inactive)
- GI50 [19]: 30 µM (inactive)

SMILES: COc1nc2c(N3CCCC3)nc(N3CCNCC3)nc2nc1NCc1ccccc1
- GI50 [1]: 1.47 µM (inactive)
- GI50 [2]: 1.98 µM (inactive)
- GI50 [3]: 0.855 µM (active)
- GI50 [4]: 2.01 µM (inactive)
- GI50 [5]: 1.09 µM (active)
- GI50 [6]: 2.03 µM (inactive)
- GI50 [7]: 2.77 µM (inactive)
- GI50 [8]: 1.9 µM (inactive)
- GI50 [9]: 1.39 µM (inactive)
- GI50 [10]: 2.83 µM (inactive)
- GI50 [11]: 2.03 µM (inactive)
- GI50 [12]: 1.76 µM (inactive)
- GI50 [13]: 1.79 µM (inactive)
- GI50 [14]: 1.48 µM (inactive)
- GI50 [15]: 1.32 µM (inactive)
- GI50 [16]: 1.44 µM (inactive)
- GI50 [20]: 1.07 µM (active)
- GI50 [17]: 1.74 µM (inactive)
- GI50 [18]: 1.58 µM (inactive)
- GI50 [19]: 3.03 µM (inactive)

Reference: ChEMBL document CHEMBL1201862, “PubChem BioAssay data set” (2004)
